For one series, the system named is mRNAs for NGF and BDNF. Particulars: Heese et al., 2000; cited from earlier work.
Series [1] concerns dentate gyrus (DG) of hippocampal slices. The series can be described thus: LTP of evoked field potentials in dentate gyrus of hippocampal slices. The class given is cell-based, mouse.
The test system is the same in series [2]. The series can be described thus: Paired-pulse depression of the population spike (feedback inhibition) in DG. The class given is cell-based, mouse. Particulars: 1 μM, interstimulus interval 30 ms. The method, then:
Recording of evoked field potentials. A slice was transferred into the recording submerged chamber and superfused with ACSF at a constant rate of 2.5 ml/min at 32° C. Recording electrodes were made of borosilicate glass capillaries (1B150F, World Precision Instruments, Sarasota, Fla.) and were filled with 2M NaCl (resistance 0.3-0.5 MΩ). Monopolar stimulating electrodes were maid of Pt/Ir wires with diameter 25.4 μm (PTT0110, World Precision Instruments, Sarasota, Fla.) and had 100-μm-long exposed tips. […]
The amplitude of the population spike was measured as follows: 1) a line was drawn at the base of the population spike connecting the first and second peaks of the field response; 2) a second line was drawn at the peak of the population spike (i.e. at the peak of the downward deflection); 3) at the peak of the spike, a line was drawn vertically between these two lines to give the amplitude of the population spike. The magnitude of the field excitatory postsynaptic potential (fEPSP) was measured as the initial slope of the linear part of the fEPSP (latencies 0.1-0.9 ms). […]
Effects of GABAB antagonists on pro-epileptic properties in Ts65Dn DG. […] We evaluated the effect of GABAB antagonists on feedback inhibition by measuring paired-pulse depression of the population spike amplitude (PS2/PS1). […]

Series [3] has the same test system. The series is classed as cell-based, mouse. Particulars: 1 μM.
Another series has as its target GABAB receptor (Homo sapiens, UniProt Q9UBS5). Particulars: 1 μM; baclofen 5-10 μM; cited from earlier work.
In series [4] the target is T1, Kir3.2-containing potassium channels (Homo sapiens, UniProt P48051).
T1 sequence (P48051 1-423): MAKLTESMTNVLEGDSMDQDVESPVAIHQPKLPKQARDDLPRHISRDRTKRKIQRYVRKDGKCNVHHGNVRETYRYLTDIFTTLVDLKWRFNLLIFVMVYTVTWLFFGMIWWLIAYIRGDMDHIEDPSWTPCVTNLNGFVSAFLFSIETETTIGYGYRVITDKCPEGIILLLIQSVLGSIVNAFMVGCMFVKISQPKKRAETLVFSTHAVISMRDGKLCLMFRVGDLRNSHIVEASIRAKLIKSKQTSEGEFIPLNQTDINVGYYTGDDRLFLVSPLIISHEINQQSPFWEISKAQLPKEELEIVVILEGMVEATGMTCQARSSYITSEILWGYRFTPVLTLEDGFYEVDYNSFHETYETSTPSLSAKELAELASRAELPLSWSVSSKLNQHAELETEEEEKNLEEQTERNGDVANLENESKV
Particulars: Kobayashi et al., 2004; read-out: IC50 for block of Kir3.2 channels; cited from earlier work.

The test system of series [5] is dentate gyrus (DG) of hippocampal slices. The series can be described thus: Spontaneous ictal bursts in high-potassium model of epilepsy in hippocampal slices. The class given is cell-based, mouse. Particulars: 1 μM, extracellular potassium 7.5 mM. The text has this: To evaluate more directly the potential effects of GABAB antagonists on epileptic properties of DG neural circuits, we examined spontaneous ictal bursts in hippocampal slices provoked by an increase in extracellular potassium. […] These changes were greater in Ts65Dn than in 2N slices (p<0.05). […] While the mechanism of the effect is yet to be refined, reduced electrochemical potential for potassium ions and the enhancement of feedback inhibition may both play a role.

The target of series [6] is presynaptic GABAB receptors. Particulars: Pozza et al., 1999; read-out: IC50 for presynaptic receptors in hippocampal slices; cited from earlier work.
Sequence of presynaptic GABAB receptors (Q9UBS5 20-961): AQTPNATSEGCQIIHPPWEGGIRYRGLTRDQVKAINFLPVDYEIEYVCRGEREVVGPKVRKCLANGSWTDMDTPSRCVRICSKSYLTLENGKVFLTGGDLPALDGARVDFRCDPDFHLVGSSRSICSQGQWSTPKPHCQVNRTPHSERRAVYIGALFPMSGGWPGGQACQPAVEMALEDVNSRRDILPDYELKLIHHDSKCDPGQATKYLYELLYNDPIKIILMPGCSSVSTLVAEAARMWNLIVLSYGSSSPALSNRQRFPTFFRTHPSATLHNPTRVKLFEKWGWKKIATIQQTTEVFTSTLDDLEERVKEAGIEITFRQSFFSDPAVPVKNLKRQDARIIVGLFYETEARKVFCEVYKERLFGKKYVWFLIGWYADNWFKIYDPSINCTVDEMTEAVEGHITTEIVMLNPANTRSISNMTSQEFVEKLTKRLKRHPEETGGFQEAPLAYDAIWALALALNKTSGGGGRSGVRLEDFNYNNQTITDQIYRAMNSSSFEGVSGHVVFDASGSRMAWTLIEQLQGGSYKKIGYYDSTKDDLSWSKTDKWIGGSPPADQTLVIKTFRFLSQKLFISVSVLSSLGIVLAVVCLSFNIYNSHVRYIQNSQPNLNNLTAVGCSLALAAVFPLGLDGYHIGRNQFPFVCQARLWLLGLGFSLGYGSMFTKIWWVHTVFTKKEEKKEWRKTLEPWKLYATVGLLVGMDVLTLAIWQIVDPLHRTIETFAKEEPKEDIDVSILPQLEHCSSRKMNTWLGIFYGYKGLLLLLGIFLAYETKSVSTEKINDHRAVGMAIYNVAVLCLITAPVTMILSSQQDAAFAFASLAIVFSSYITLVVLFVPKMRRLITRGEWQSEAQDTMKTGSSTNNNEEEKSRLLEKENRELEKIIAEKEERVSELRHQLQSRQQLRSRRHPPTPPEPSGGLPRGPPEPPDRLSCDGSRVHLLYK
Sequence of presynaptic GABAB receptors (O75899 42-941 partner): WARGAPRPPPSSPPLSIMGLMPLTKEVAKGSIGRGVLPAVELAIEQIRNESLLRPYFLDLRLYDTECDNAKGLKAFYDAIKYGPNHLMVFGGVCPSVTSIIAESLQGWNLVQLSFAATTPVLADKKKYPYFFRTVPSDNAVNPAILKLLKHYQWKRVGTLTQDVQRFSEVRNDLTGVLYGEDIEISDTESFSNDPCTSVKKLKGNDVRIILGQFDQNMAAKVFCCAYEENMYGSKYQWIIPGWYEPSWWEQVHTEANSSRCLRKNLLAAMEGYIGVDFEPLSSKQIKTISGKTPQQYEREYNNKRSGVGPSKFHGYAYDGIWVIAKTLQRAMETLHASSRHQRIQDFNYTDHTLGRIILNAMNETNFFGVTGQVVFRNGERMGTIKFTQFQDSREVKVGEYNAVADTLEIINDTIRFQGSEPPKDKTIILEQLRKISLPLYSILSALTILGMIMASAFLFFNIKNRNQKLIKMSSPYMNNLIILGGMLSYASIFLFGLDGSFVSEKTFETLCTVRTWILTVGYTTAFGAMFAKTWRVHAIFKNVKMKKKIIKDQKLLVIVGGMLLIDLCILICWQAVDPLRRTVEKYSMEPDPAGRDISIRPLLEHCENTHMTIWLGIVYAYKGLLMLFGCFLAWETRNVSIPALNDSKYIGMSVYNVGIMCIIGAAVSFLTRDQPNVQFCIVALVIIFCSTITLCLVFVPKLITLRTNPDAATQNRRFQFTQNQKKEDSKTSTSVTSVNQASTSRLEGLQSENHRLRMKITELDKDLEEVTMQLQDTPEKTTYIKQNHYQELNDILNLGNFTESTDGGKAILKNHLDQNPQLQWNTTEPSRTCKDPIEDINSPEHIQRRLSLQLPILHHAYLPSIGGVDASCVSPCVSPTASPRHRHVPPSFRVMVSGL
The test system of series [7] is 2N and Ts65Dn mice. The series can be described thus: Spontaneous locomotor activity in activity box. The class given is in vivo, mouse. Particulars: 0.5 mg/kg i.p. daily, acute (1 week) and chronic (3 weeks). The procedure: (§1) Behavioral testing. All mice were exposed to the same series of behavioral tests starting at 2-2.5 months of age. Each mouse was handled for 10 min, twice a day, during the 7 days that preceded testing and for 3 days in between tests. Tests for spontaneous locomotor activity and open field were performed before the drug, during the acute (1 week), and during the chronic (3 weeks) phases of the drug administration. Novel object recognition task with a 24 hours delay was performed during the chronic phase (3 weeks) of the drug administration. All behavioral testing took place during the light cycle between 7:00 a.m. and 7:00 p.m. and was performed at room temperature (22° C.). On the day of testing, the mice were left in their home cages in the experimental room for 2 hours for habituation. To minimize olfactory cues from the previous trial, each apparatus was thoroughly cleaned with 10% ethanol after each animal. CGP55845 (0.5 mg/kg) or equivalent volume of saline was injected intraperitoneally once a day during 3 weeks. Body weight was measured weekly. […]
Spontaneous locomotor activity. Spontaneous locomotor activity was monitored using square Plexiglas activity chambers (43.2×43.2×20 cm) and activity monitor software (Med Associates Activity Monitor, version 5.93.773). […] Distance moved, velocity, resting time, and times spent in pre-defined areas of the arena were recorded. […]

Series [8] in a line: Body weight during treatment. Particulars: 0.5 mg/kg i.p. once a day during 3 weeks; 2N and Ts65Dn mice. The class given is in vivo, mouse. The method, then: (§2) Behavioral testing. All mice were exposed to the same series of behavioral tests starting at 2-2.5 months of age. Each mouse was handled for 10 min, twice a day, during the 7 days that preceded testing and for 3 days in between tests. Tests for spontaneous locomotor activity and open field were performed before the drug, during the acute (1 week), and during the chronic (3 weeks) phases of the drug administration. Novel object recognition task with a 24 hours delay was performed during the chronic phase (3 weeks) of the drug administration. All behavioral testing took place during the light cycle between 7:00 a.m. and 7:00 p.m. and was performed at room temperature (22° C.). On the day of testing, the mice were left in their home cages in the experimental room for 2 hours for habituation. To minimize olfactory cues from the previous trial, each apparatus was thoroughly cleaned with 10% ethanol after each animal. CGP55845 (0.5 mg/kg) or equivalent volume of saline was injected intraperitoneally once a day during 3 weeks. Body weight was measured weekly. The body weight was lower in Ts65Dn than in 2N mice, and it was not affected by the treatment (Supplementary FIG. S6). All behavioral tests and procedures were performed by operators who were blind to the genotypes and drug treatment.

Series [9] deals with postsynaptic GABAB receptors (Homo sapiens, UniProt Q9UBS5). Particulars: Pozza et al., 1999; read-out: IC50 for postsynaptic receptors in hippocampal slices; cited from earlier work.
Sequence of postsynaptic GABAB receptors (Q9UBS5 20-961): as the sequence (Q9UBS5 20-961) above
Sequence of postsynaptic GABAB receptors (O75899 42-941 partner): as the sequence (O75899 42-941 partner) above
The test system of series [10] is 2N and Ts65Dn mice. The experiment in a line: Novel object recognition with 24 h delay. Particulars: 0.5 mg/kg i.p. daily, 3 weeks. The series is classed as in vivo, mouse. The method, then:
as §2
Novel object recognition. The Bevins and Besheer protocol (Bevins and Besheer, 2006) for two sample objects with one environment was used to study learning and memory with 24 hours delays in 2N and Ts65Dn mice. Before testing, mice were habituated in a black Plexiglas chamber (31×24×27 cm) during 10 min for 2 consecutive days under dim ambient light conditions. Activity of mice during the object recognition task was recorded with a video camera. Two objects (A and B) consistent with height and volume, but different in shape and appearance were used in this test. […] The amount of time spent exploring each object (nose sniffing and head orientation within <1.0 cm) was recorded and evaluated by an operator, who was blind to both the phenotype and the treatment. […]

The subject of series [11] is 2N and Ts65Dn mice. The series can be described thus: Open field activity. The series is classed as in vivo, mouse. Particulars: 0.5 mg/kg i.p. daily, acute (1 week) and chronic (3 weeks). The method, then: as §1, with “On the day of testing, the mice were left in their home cages in the experimental room for 2 hours for habituation. To minimize olfactory cues from the previous trial, each apparatus was thoroughly cleaned with 10% ethanol after each animal. CGP55845 (0.5 mg/kg) or equivalent volume of saline was injected intraperitoneally once a day during 3 weeks.” left out
Open field activity. Open field activity was recorded with a video camera in the arena of white squared box (76×76×50 cm) and analyzed with an automated videotracking system EthoVision Pro 3.1 (Noldus Information Technology, Wageningen, The Netherlands). Mice were placed in the center of the open field arena under dim ambient light conditions and activity was monitored for 10 min in a single trial. […] Results were averaged for total distance traveled, number of entries and the time spent in the pre-determined areas (the center of the arena, the periphery, i.e. area extending 12 cm from the center, and the border, which included the four corners).

The next series has as its system Ts65Dn hippocampal LTP. Particulars: in vitro system; Kleschevnikov 2004; cited from earlier work.

Sequence of GABAB receptor (Q9UBS5 20-961): as the sequence (Q9UBS5 20-961) above
Sequence of GABAB receptor (O75899 42-941 partner): as the sequence (O75899 42-941 partner) above

`CCCCP(=O)(O)CCCN` [CGP36742]: the “levels of mRNAs for NGF and BDNF” value with mRNAs for NGF and BDNF was “increased”.
Regarding `CCOC(OCC)P(=O)(O)CCCNCc1ccc(Cl)c(Cl)c1` [CGP52432], the “effect on LTP” value in series [1] (1.0 μM, Ts65Dn slices) is “enhanced LTP in the Ts65Dn DG”. Further, the PS2/PS1 ratio in series [2] (2N slices, baseline 1.09±0.18) was 0.93±0.25. For the same compound, in series [2] (Ts65Dn slices, baseline 0.71±0.16), the PS2/PS1 ratio was found to be 0.59±0.17. In addition, in series [3], the “NMDA receptor-mediated component of the tetanus-evoked field responses” value is “enhanced the NMDA receptor-mediated responses”, the “NMDA receptor-mediated component of the tetanus-evoked responses” value is listed as “restored to 2N levels” and the tetanus-evoked field responses entry is on record as “significantly increased”.
With `C[C@H](NC[C@H](O)CP(=O)(O)Cc1ccccc1)c1ccc(Cl)c(Cl)c1.Cl` [CGP 55845A], the “baclofen-induced postsynaptic hyperpolarization and depression of evoked IPSPs and EPSPs” value on GABAB receptor is “blocks”.
For orientation: IC50 means the concentration that inhibits the measured activity by half. Take `CNCCC(Oc1ccc(C(F)(F)F)cc1)c1ccccc1` (stereo not drawn) [fluoxetine]: in series [4], the IC50 was roughly 10000 nM. Besides, the “effect on LTP” value in series [1] (10 μM, Ts65Dn DG) is “enhanced LTP in the Ts65Dn DG”.
Turning to CGP55845, in series [5] (2N and Ts65Dn DG, p=0.8), the “frequency of spontaneous ictal bursts” value was “did not affect”. Besides, the “amplitude of burst-associated field potentials” value in [5] (change greater in Ts65Dn than 2N, p<0.01) is on record as “significantly reduced”. The “effect on LTP” value is “enhanced LTP in Ts65Dn” in series [1] (0.1 μM, Ts65Dn slices); “enhanced LTP in both Ts65Dn and 2N slices” in series [1] (1.0 μM, 2N slices); “enhanced LTP in both Ts65Dn and 2N slices” in series [1] (1.0 μM, Ts65Dn slices). Moreover, the half-maximal inhibitory concentration (IC50) was 740 nM in series [6] and 110 nM in series [9]. Further, the spontaneous locomotor activity result in the series on 2N and Ts65Dn mice [7] is listed as “did not affect”. Moreover, the body weight result in [8] is recorded as “not affected”. The “exploration habits (total time of exploration of objects)” value in the series with 2N and Ts65Dn mice [10] (2N and Ts65Dn mice) is listed as “no effect”. For the same compound, the “improvement of memory in novel object recognition” value with 2N and Ts65Dn mice [10] (2N mice) is “observed only in Ts65Dn mice”. The discrimination index entry with 2N and Ts65Dn mice [10] (Ts65Dn mice vs Ts65Dn vehicle control, p<0.05) is reported as “significantly higher”. In addition, the “open field parameters (velocity, distance, time in regions)” value in the series on 2N and Ts65Dn mice [11] is reported as “no significant effect”.
For picrotoxin, the “deficits in Ts65Dn hippocampal LTP” value in the series on Ts65Dn hippocampal LTP is “reverse”.

These data come from patent US20120225848A1, “Antagonists of GABA-B Receptors to Enhance Neuronal Function, Learning and Memory” (priority 2009, published 2012).
